Source: ChEMBL document CHEMBL1201862, “PubChem BioAssay data set” (2004)
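The compound was tested at five concentrations on cells cultured in 96-well plates, with a 48-hour exposure period. Here, GI50 denotes the concentration required for 50% inhibition of growth.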 Calls of active or inactive are those of the source. No stated cut-off is given here; in the data, active = GI50 up to about 1.1 µM and inactive = higher.

How the values were obtained:
Test in all cases: inhibition of tumour cell growth, NCI panel, 48 h
SF-268 = test system: SF-268
NCI-H23 = test system: NCI-H23
HOP-62 = test system: HOP-62
RXF 393 = test system: RXF 393
PC-3 = test system: PC-3
KM12 = test system: KM12
OVCAR-5 = test system: OVCAR-5
NCI/ADR-RES = test system: NCI/ADR-RES
Malme-3M = test system: Malme-3M
NCI-H226 = test system: NCI-H226
MDA-N = test system: MDA-N
LOX IMVI = test system: LOX IMVI
CAKI-1 = test system: CAKI-1
NCI-H522 = test system: NCI-H522
SNB-19 = test system: SNB-19
HL-60 = test system: HL-60
UACC-62 = test system: UACC-62
OVCAR-8 = test system: OVCAR-8
UO-31 = test system: UO-31
SR = test system: SR

Row | SMILES | GI50 (SF-268) | GI50 (NCI-H23) | GI50 (HOP-62) | GI50 (RXF 393) | GI50 (PC-3) | GI50 (KM12) | GI50 (OVCAR-5) | GI50 (NCI/ADR-RES) | GI50 (Malme-3M) | GI50 (NCI-H226) | GI50 (MDA-N) | GI50 (LOX IMVI) | GI50 (CAKI-1) | GI50 (NCI-H522) | GI50 (SNB-19) | GI50 (HL-60) | GI50 (UACC-62) | GI50 (OVCAR-8) | GI50 (UO-31) | GI50 (SR)
1 | c1ccc([P+](c2ccccc2)(c2ccccc2)c2ccc(-c3ccc([P+](c4ccccc4)(c4ccccc4)c4ccccc4)cc3)cc2)cc1 | 58.5 µM (inactive) | 21.9 µM (inactive) | 46.5 µM (inactive) | 48.1 µM (inactive) | 35.5 µM (inactive) | 75.5 µM (inactive) | 67.5 µM (inactive) | > 100 µM (inactive) | 25.3 µM (inactive) | 30.8 µM (inactive) | 29.3 µM (inactive) | 23.3 µM (inactive) | > 100 µM (inactive) | 18.3 µM (inactive) | 50.7 µM (inactive) | > 100 µM (inactive) | 56.6 µM (inactive) | 19.4 µM (inactive) |  | 
2 | CCCCCCCCCCCCCCCCOCC(CC(F)(F)P(=O)(O)O)OC(C)=O (centres undefined) | > 50 µM (inactive) | > 50 µM (inactive) | 15.1 µM (inactive) |  | > 50 µM (inactive) | > 50 µM (inactive) | > 50 µM (inactive) | > 50 µM (inactive) | > 50 µM (inactive) | > 50 µM (inactive) | > 50 µM (inactive) |  | > 50 µM (inactive) | > 50 µM (inactive) | > 50 µM (inactive) |  | > 50 µM (inactive) |  | > 50 µM (inactive) | 
3 | O=C(C1OC1c1ccc(Br)cc1O)C12CC3CC(CC(C3)C1)C2 (centres undefined) | 31.7 µM (inactive) | 19.2 µM (inactive) | 26.2 µM (inactive) | 21.7 µM (inactive) | 23.6 µM (inactive) | 19.5 µM (inactive) | 41.5 µM (inactive) | 30 µM (inactive) | 20 µM (inactive) | 28.5 µM (inactive) | 17 µM (inactive) | 14.6 µM (inactive) |  | 18.8 µM (inactive) | 34.8 µM (inactive) | 16.9 µM (inactive) | 15.5 µM (inactive) | 20.5 µM (inactive) | 13.2 µM (inactive) | 
4 | COC(=O)CCCc1ccc2c(c1)CC1(Cc3ccccc3C1)C2 |  | 46.3 µM (inactive) | > 100 µM (inactive) | 77.1 µM (inactive) | 41.1 µM (inactive) | > 100 µM (inactive) | > 100 µM (inactive) | 80 µM (inactive) | 87.1 µM (inactive) | > 100 µM (inactive) | 23.2 µM (inactive) | 40.3 µM (inactive) |  | 47.6 µM (inactive) |  |  | > 100 µM (inactive) | 70.1 µM (inactive) | 86.1 µM (inactive) | 
5 | O=c1cc(N2CCOCC2)[nH]c(=O)n1-c1cccc(C(F)(F)F)c1 | > 100 µM (inactive) | > 100 µM (inactive) | > 100 µM (inactive) |  |  | > 100 µM (inactive) | > 100 µM (inactive) | > 100 µM (inactive) | > 100 µM (inactive) | > 100 µM (inactive) | > 100 µM (inactive) | > 100 µM (inactive) | > 100 µM (inactive) | > 100 µM (inactive) |  | > 100 µM (inactive) | > 100 µM (inactive) | > 100 µM (inactive) | > 100 µM (inactive) | > 100 µM (inactive)
6 | NC(=O)c1nnn(-c2ccccc2)c1O | > 100 µM (inactive) | > 100 µM (inactive) | > 100 µM (inactive) | > 100 µM (inactive) | > 100 µM (inactive) | > 100 µM (inactive) | > 100 µM (inactive) | > 100 µM (inactive) | > 100 µM (inactive) | > 100 µM (inactive) |  | > 100 µM (inactive) | > 100 µM (inactive) | > 100 µM (inactive) | > 100 µM (inactive) | 0.1 µM (active) | > 100 µM (inactive) | > 100 µM (inactive) | > 100 µM (inactive) | 
7 | CCCCN(CC)C(=O)C1=C(C)NC(C)=C(C(=O)N(CC)CCCC)C1 | > 100 µM (inactive) | > 100 µM (inactive) | > 100 µM (inactive) | > 100 µM (inactive) |  | > 100 µM (inactive) | > 100 µM (inactive) | > 100 µM (inactive) |  | 88.9 µM (inactive) | > 100 µM (inactive) | > 100 µM (inactive) | > 100 µM (inactive) |  | > 100 µM (inactive) | 89.1 µM (inactive) | 57.7 µM (inactive) | > 100 µM (inactive) | > 100 µM (inactive) | 
8 | CC1OC23CCCCC2C(C#N)(C#N)C1(C#N)C(=N)O3 (centres undefined) | 24.7 µM (inactive) | 21 µM (inactive) |  | 19.7 µM (inactive) | 24.4 µM (inactive) | 24.3 µM (inactive) | 22 µM (inactive) | 37.4 µM (inactive) | 20.4 µM (inactive) | > 100 µM (inactive) | 18.4 µM (inactive) | 17.6 µM (inactive) | 6.9 µM (inactive) |  | 22.8 µM (inactive) | 4.21 µM (inactive) | > 10 µM (inactive) | 20.7 µM (inactive) | > 10 µM (inactive) | 
9 | COc1cc(NS(C)(=O)=O)ccc1Nc1ccnc2ccc3[nH]ccc3c12 | 11 µM (inactive) | 13.7 µM (inactive) | 15.8 µM (inactive) |  | 13.1 µM (inactive) | 13.8 µM (inactive) | 16.6 µM (inactive) | > 100 µM (inactive) | 14.1 µM (inactive) | 18.9 µM (inactive) | 16.2 µM (inactive) | 15.2 µM (inactive) | 17.3 µM (inactive) | 5.6 µM (inactive) | 15.5 µM (inactive) | 31.5 µM (inactive) | 17.8 µM (inactive) | 13.6 µM (inactive) | 40.2 µM (inactive) | 
10 | CC1(C)C/N=C/C(C)(OCc2ccccc2)C(=O)NC(C)(C)C/N=C/C(C)(OCc2ccccc2)C(=O)N1 (centres undefined) | > 10 µM (inactive) | > 10 µM (inactive) | > 10 µM (inactive) | > 10 µM (inactive) | > 10 µM (inactive) | > 10 µM (inactive) | > 10 µM (inactive) |  |  | > 10 µM (inactive) | > 10 µM (inactive) | > 10 µM (inactive) |  |  | > 10 µM (inactive) | > 10 µM (inactive) | > 10 µM (inactive) | > 10 µM (inactive) | > 10 µM (inactive) | > 10 µM (inactive)
11 | CCOC(=O)Cc1csc(N/N=C2\C(=O)Nc3ccccc32)n1 | 66.8 µM (inactive) | 32.6 µM (inactive) | 36.5 µM (inactive) | 87.1 µM (inactive) | 30.1 µM (inactive) | 31.2 µM (inactive) | > 100 µM (inactive) | 31.8 µM (inactive) |  | 30.2 µM (inactive) | 41.8 µM (inactive) | 48.8 µM (inactive) | 32.5 µM (inactive) | 19 µM (inactive) | 26.9 µM (inactive) | 19.7 µM (inactive) | 42.2 µM (inactive) | 40.6 µM (inactive) | 27.3 µM (inactive) | 
12 | CCOC1OC(CO)C(O)CC1n1ccc(=O)[nH]c1=O (centres undefined) | > 100 µM (inactive) | > 100 µM (inactive) |  | > 100 µM (inactive) | > 100 µM (inactive) | > 100 µM (inactive) | > 100 µM (inactive) | > 100 µM (inactive) | > 100 µM (inactive) | > 100 µM (inactive) | > 100 µM (inactive) | > 100 µM (inactive) | > 100 µM (inactive) | 30.3 µM (inactive) | > 100 µM (inactive) |  | > 100 µM (inactive) | > 100 µM (inactive) | > 100 µM (inactive) | 
13 | CSc1nc2c(c(N(C)C)n1)C=Nn1c(nc3ccccc31)S2 | 60.4 µM (inactive) | > 100 µM (inactive) | 84.3 µM (inactive) | 29 µM (inactive) | > 100 µM (inactive) | > 100 µM (inactive) | > 100 µM (inactive) | > 100 µM (inactive) | 91 µM (inactive) | > 100 µM (inactive) | 95.1 µM (inactive) | 76.2 µM (inactive) | > 100 µM (inactive) | 55.5 µM (inactive) | > 100 µM (inactive) |  | 83 µM (inactive) | 74.3 µM (inactive) | 51.1 µM (inactive) | 
14 | Cn1c(N)nc(-c2ccc(Cl)cc2)c1SSc1c(-c2ccc(Cl)cc2)nc(N)n1C | 2.77 µM (inactive) | 1.63 µM (inactive) | 2.86 µM (inactive) | 2.43 µM (inactive) | 1.84 µM (inactive) | 1.85 µM (inactive) | 1.86 µM (inactive) | 2.1 µM (inactive) | 2.3 µM (inactive) | 37.2 µM (inactive) | 1.77 µM (inactive) |  |  | 1.66 µM (inactive) | 14.7 µM (inactive) | 1.05 µM (active) | 2.3 µM (inactive) | 2.86 µM (inactive) | 1.85 µM (inactive) | 
15 | CC(=O)Oc1cccc2c1C(=O)C(Br)(Br)CCC2 | 8.34 µM (inactive) | 4.29 µM (inactive) | 14.4 µM (inactive) | 6.24 µM (inactive) | 3.96 µM (inactive) | 8.49 µM (inactive) | 7.6 µM (inactive) |  | 4.07 µM (inactive) | 6.68 µM (inactive) | 2.89 µM (inactive) | 2.17 µM (inactive) | 6.62 µM (inactive) | 1.87 µM (inactive) | 11.1 µM (inactive) | 2.38 µM (inactive) | 7.76 µM (inactive) | 4.38 µM (inactive) | 9.46 µM (inactive) | 1.77 µM (inactive)
16 | CC(C)(O)C1OCC(C2CCC3(C)C4=CCC5C(C)(C)C(O)CCC5(C)C4CCC23C)CC1O (centres undefined) | 16.1 µM (inactive) | 23.2 µM (inactive) |  |  | 10.5 µM (inactive) | 14 µM (inactive) | 19.5 µM (inactive) | 12.6 µM (inactive) | 18.5 µM (inactive) | 13 µM (inactive) | 16.6 µM (inactive) | 17.9 µM (inactive) | 16 µM (inactive) | 11.5 µM (inactive) | 16.4 µM (inactive) | > 100 µM (inactive) | 14.9 µM (inactive) | 14.4 µM (inactive) | 16 µM (inactive) | 
